This is an account of results in patent US11730712B2, “Functionalized long-chain hydrocarbon mono- and di-carboxylic acids and derivatives thereof, and their use for the prevention or treatment of disease” (ESPERVITA THERAPEUTICS, INC., priority 2021, dated 2023).

The first experiment relates to mouse primary hepatocytes. Put plainly: 14C-acetate incorporation into total lipids in primary mouse hepatocytes. It counts as cell-based. The settings on record: 100 μM, 4-hour period. The method, then: After perfusion, collagen digested liver cells were re-suspended in William's E media (11 mM glucose) (Gibco) supplemented with 10% fetal bovine serum (FBS) (Gibco), 2 mM L-glutamine (Gibco) and 1% Antibiotic-Antimycotic (Gibco) mixture and seeded in white opaque 96-well plates. On the following day, the cells were serum-starved for 2 hours, then treated with 0 μM, 0.1 μM, 0.3 μM, 0.5 μM, 1 μM, 3 μM, 10 μM, and 100 μM of Compound I-32, Compound I-1, or Compound III-1 or Reference Compound (e.g., Compounds A-E and bempedoic acid) in the presence of ^14C-Acetate (1 μCi/ml, PerkinElmer). Each of Compound I-32, Compound I-1, Compound III-1, and Reference Compound was solubilized in 100% DMSO to a final concentration of 100 mM stock solution. In the experimental condition, the stock solution was diluted in serum free media (William's E media (11 mM glucose) (Gibco), 2 mM L-glutamine (Gibco) and 1% Anti biotic-Antimycotic) to yield the desired concentration of each compound. […] After 4 hours of treatment, the plates were washed two times with PBS (×1) and 100 μL microscint fluid (Microscint O, part #601361) was added in each well. Plates were wrapped with aluminum foil and were shaken at 250 rpm for 2 h. After 2 h of shaking, ^14C incorporation into lipid was determined by liquid scintillation counting using a TopCount NXT Microplate Scintillation and Luminescence Counter (Perkin Elmer).
The effects of Compound I-32. Compound I-1, and Compound III-1 on mouse primary hepatocyte lipogenesis are represented in Table 1. Each Compound was assayed at a concentration of 0 μM (vehicle control), 0.1 μM, 0.3 μM, 0.5 μM, 1 μM, 3 μM, 10 μM, and 100 μM, unless otherwise noted. Statistically significant inhibition was determined by one-way ANOVA and Dennett's post hoc test where appropriate. […] IC50 values were determined by nonlinear regression. All statistical analyses were carried out using GraphPad Prism 8 software. A p-value of less than or equal 0.05 was considered significant.
On to `CC(C)(CCCc1ccccc1CCCC(C)(C)C(=O)O)C(=O)O` [Compound I-61, 5-[2-(4-Carboxy-4-methylpentyl)-phenyl]-2,2-dimethylpentanoic acid], for which the “% change from control at 100 μM ± SEM(n), 14C-acetate incorporation in total lipids” value was “+44 ± 8.1 (n = 4) %”. With `CC(C)(CCCCC(=O)CCCCC(C)(C)C(=O)O)C(=O)O` [B], the “% change from control at 100 μM ± SEM(n), 14C-acetate incorporation in total lipids” value is listed as −69 ± 2.3 (n = 4) %.

Staying with this experiment, now noted: Hepatocyte, 4-hour period, read-out: IC50 in μM, inhibition of 14C-acetate incorporation in total lipids.
Consider `CC(C)(CCCCCC(O)CCCCCC(C)(C)C(=O)O)C(=O)O` [BA, Bempedoic acid], for which the IC50 amounted to 0.68 µM. `CC(C)(CCCCCCC(=O)CCCCCCC(C)(C)C(=O)O)C(=O)O` [E]: the IC50 is 0.35 µM. On to `CC(C)(CO)CCCCCC(=O)CCCCCC(C)(C)CO` [D], for which the IC50 was 5.39 µM.

Consider `CC(C)(CCCCCCCCCCCC(C)(C)C(=O)O)C(=O)O` [F], for which the IC50 was < 0.3 µM. Turning to `CC(C)(CCCc1ccc(CCCC(C)(C)C(=O)O)cc1)C(=O)O` [III-1, 5,5′-(1,4-phenylene)bis(2,2-dimethylpentanoic acid)], the IC50 was 27.7 µM. In the case of `CC(C)(CCCCCC(=O)CCCCCC(C)(C)C(=O)O)C(=O)O` [C], the IC50 is 0.46 µM. On the same count and under the same terms, the figure for `CC(C)(CCCCC(=O)CCCCC(C)(C)C(=O)O)C(=O)O` [B] is 25.6 µM. Consider `CC(C)(CO)CCCCC(=O)CCCCC(C)(C)CO` [A], for which the IC50 was determined as 73.2 µM.
